pIC50: −log10 of the molar value.
Columns and labels:
[1] = test system: Venturia inaequalis; test: Example A: apple scab on apple seedlings; format: in vivo; details: 200 ppm, sprayed the day before inoculation, 100 = 100% disease control
Experimental: (§1) The test compounds were dissolved in acetone in an amount equal to 6% of the final volume and then suspended at a concentration of 200 ppm in purified water containing 250 ppm of the surfactant TREM 014 (polyhydric alcohol esters). This suspension was sprayed to the point of run-off on apple seedlings. The following day plants were inoculated with a spore suspension of Venturia inaequalis, the casual agent of apple scab, and incubated in a saturated humidity chamber at 20° C. for 24 hours and then in a growth chamber at 22° C. for 11 days, when disease ratings were made. […] A dashed entry indicates the specified test was not performed.

[2] = test system: Phytophthora infestans; format: in vivo; details: tomato seedlings, 200 ppm; 100 = 100% disease control
[3] = test system: 3-Hydroxy-3-Methylglutaryl Coenzyme A Reductase (HMGR); test: 3-Hydroxy-3-Methylglutaryl Coenzyme A Reductase (HMGR) Suppression Assay; format: cell-based, Chinese Hamster (CHO cells); details: CHO cells, 6 hr. at 37°; read-out: IC50 (amount of compound required to suppress HMGR activity by 50% relative to controls)
Experimental: The ability of the compounds of Formula I to suppress the activity of HMGR, the rate limiting enzyme of cholesterol biosynthesis, was tested as follows.
Chinese Hamster Ovary (CHO) cells were divided twice weekly and were maintained in McCoy's 5A medium supplemented with 1% carbosil delipidated Fetal Bovine System (FBS) (obtained from Gibco Laboratories, Chagrin Falls, Ohio). Cells were harvested during the logarithmic phase of growth and cell cultures were prepared by adding […] cells to each well in a 24 well cluster dish (obtained from Costar, Data Packaging Corp., Cambridge, Mass.) employing 1 ml of the above medium per each well. […] Control cells were treated in an identical fashion to those which received test compound, except they were incubated with the BSA and ethanol suspension only.
Specifically, the medium in each well was aspirated and the cells rinsed with a 50 mM solution of phosphate buffered saline (PBS). One ml of 30 mg/ml of digitonin in CSK buffer (prepared using 10 mM Pipes [piperazine-N,N'-bis (2-ethansulfonic) acid], 100 mM KCl, 2.5 mM MgCl2, 300 mM sucrose, 1 mM EGTA, pH 6.8) was added to each well and incubated for 10 min. at 22° to permeabilize the cells. The buffer was carefully aspirated and the wells were rinsed twice each time with 1 ml of PBS. HMGR activity was measured directly by adding 75 ml of PIB buffer (50 mM potassium phosphate, 1 mM Na2 EDTA, 10 mM dithiothreitol, pH 7.4) to each well and incubating the cells for 30 minutes at 37° as described above. […] The assay mixture was incubated for 30 min. at 37° and terminated by the addition of 70 ml of [^3 H]-mevalonicacid (35,000 DPM/assay), 0.15 mg/ml in 3N HCl.
The reaction was left to lactonize for an additional 30 min. at 37° or overnight at room temperature.
Reaction products were separated by thin layer chromatography on silica gel G (obtained from Analtech, Newark, Del.) developed in an unsaturated environment with acetone:benzene (3:2, v:v). The band corresponding to mevalonolactone was identified by exposure to iodine vapor and was scraped into counting vials. The extent of conversion of starting substrate, HMG-CoA, to mevalonic acid was determined by liquid scintillation counting in Biofluor (obtained from New England Nuclear, Boston, Mass.). Corrections for recovery and blank values were made for each sample. Protein determinations were made by Bio-Rad (Bio-Rad, Richmond, Calif.) dye binding assay according to the manufacturer's instruction using bovine serum albumin as standard. Cellular protein was solubilized from culture dishes by the addition of 20 μl of 16N KOH and assayed directly for protein amount. Suppression values are expressed as the amount of compound required to suppress HMGR activity by 50% relative to that of the controls.

[4] = test system: peanut seedlings; test: Example B: plant disease control on peanut seedlings; format: in vivo; details: 200 ppm, 100 = 100% disease control
Experimental: The test compounds were dissolved in acetone in an amount equal to 6% of the final volume and then suspended at a concentration of 200 ppm in purified water containing 250 ppm of the surfactant TREM […] (polyhydric alcohol esters). This suspension was sprayed to the point of run-off on peanut seedlings. The following day plants were incubated in a saturated humidity chamber at 22° C. for 24 hours, then in a high humidity chamber at 27° C. for 7 days, and then in a growth chamber at 29° C. for 7 days, when disease ratings were made.
In this table, a rating of 100 indicated 100% disease control, and a rating of 0 indicates no disease control relative to untreated plants that were inoculated and incubated as described in each Example. A dashed entry indicates the specified test was not performed.

[5] = test system: Ersiphe graminis f. sp. tritici; test: Example D: wheat powdery mildew on wheat seedlings; format: in vivo; details: 200 ppm, 100 = 100% disease control
Experimental: The test compounds were dissolved in acetone in an amount equal to 6% of the final volume and then suspended at a concentration of 200 ppm in purified water containing 250 ppm of the surfactant TREM 014 (polyhydric alcohol esters). This suspension was sprayed to the point of run-off on wheat seedlings. […] A dashed entry indicates the specified test was not performed.

[6] = test system: Rhizoctonia solani; test: Example F: rice sheath blight on rice seedlings; format: in vivo; details: 220 ppm, 0 = no disease control, 100 = 100% disease control
Experimental: The test compounds were dissolved in acetone in an amount equal to 6% of the final volume and then suspended at a concentration of 220 ppm in purified water containing 250 ppm of the surfactant TREM 014 (polyhydric alcohol esters). This suspension was sprayed to the point of run-off on rice seedlings. The following day plants were inoculated with a mycelial suspension of Rhizoctonia solani, the causal agent of rice sheath blight, and incubated in a saturated humidity chamber at 27° C. for 48 hours and then in a growth chamber at 29° C. for 4 days, when disease ratings were made. […] A dashed entry indicates the specified test was not performed.

[7] = test system: Botrytis cinerea; test: Example J: grape grey mold on grape seedlings; format: in vivo; details: 200 ppm, 100 = 100% disease control
Experimental: as §1, with “grape” for “apple”, “Botrytis cinerea,” for “Venturia inaequalis,”, “causal” for “casual”, “grape grey mold,” for “apple scab,”, “96” for “24”, “hours” for “hours and then in a growth chamber at 22° C. for 11 days,”

[8] = test system: Pyricularia oryzae; format: in vivo; details: rice seedlings, 200 ppm; 100 = 100% disease control
[9] = test system: Botrytis cinerea; test: Example K: cucumber grey mold on cucumber seedlings; format: in vivo; details: 200 ppm, 100 = 100% disease control
Experimental: as §1, with “cucumber” for “apple”, “Botrytis cinerea,” for “Venturia inaequalis,”, “causal” for “casual”, “cucumber grey mold,” for “apple scab,”, “4 days” for “24 hours and then in a growth chamber at 22° C. for 11 days,”

[10] = test system: Puccinia recondita; test: Example G: wheat leaf rust on wheat seedlings; format: in vivo; details: 220 ppm, 100 = 100% disease control
Experimental: The test compounds were dissolved in acetone in an amount equal to 6% of the final volume and then suspended at a concentration of 220 ppm in purified water containing 250 ppm of the surfactant TREM 014 (polyhydric alcohol esters). This suspension was sprayed to the point of run-off on wheat seedlings. The following day plants were inoculated with a spore suspension of Puccinia recondita, the causal agent of wheat leaf rust, and incubated in a saturated humidity chamber at 20° C. for 48 hours and then in a growth chamber at 20° C. for 8 days, when disease ratings were made. […] A dashed entry indicates the specified test was not performed.

[11] = test system: Plasmopara victicola; test: Example I: grape downy mildew on grape seedlings; format: in vivo; details: 200 ppm, 100 = 100% disease control
Experimental: (§2) The test compounds were dissolved in acetone in an amount equal to 6% of the final volume and then suspended at a concentration of 200 ppm in purified water containing 250 ppm of the surfactant TREM 014 (polyhydric alcohol esters). This suspension was sprayed to the point of run-off on grape seedlings. The following day plants were inoculated with a spore suspension of Plasmopara victicola, the causal agent of grape downy mildew, and incubated in a saturated humidity chamber at 20° C. for 24 hours and then in a growth chamber at 20° C. for 7 days, and then held in a saturated humidity chamber at 20° C. for 24 hours, when disease ratings were made. […] A dashed entry indicates the specified test was not performed.

[12] = test system: Botyrtis cinerea; test: Example C: bean grey mold on broad bean seedlings; format: in vivo; details: 200 ppm, 100 = 100% disease control
Experimental: as §2, with “[…]” for “014”, “broad bean” for “grape”, “Botyrtis cinerea,” for “Plasmopara victicola,”, “bean grey mold,” for “grape downy mildew,”, “hours” for “hours and then in a growth chamber at 20° C. for 7 days, and then held in a saturated humidity chamber at 20° C. for 24 hours,”

CC(C)CCC[C@@H](C)[C@H]1CN=C2C3=C(CC[C@@]21C)[C@@]1(C)CC[C@H](O)C[C@@H]1CC3 [Example 1818]
disease control rating, Example A [1]: 99%
disease control rating, Example H [2]: 94%
pIC50 [3]: 6.80
disease control rating, Example B [4]: 95%
disease control rating, Example D [5]: 98%
disease control rating, Example F [6]: 0%
disease control rating, Example J [7]: 78%
disease control rating, Example E [8]: 6%
disease control rating, Example K [9]: 100%
disease control rating, Example G [10]: 100%
disease control rating, Example I [11]: 100%
disease control rating, Example C [12]: 95%
